In article PMC10600239, “Selective MCL-1 inhibitor ABBV-467 is efficacious in tumor models but is associated with cardiac troponin increases in patients” (Communications Medicine, 2023):
Where “and” joins values, the source holds several entries; their conditions need not be identical. Identical values can stand only once.

Test system: OPM-2 xenografts
Experiment: OPM-2 xenograft efficacy (tumor volume, body weight)
Assay type: in vivo, mouse
Details: for Tumor Volume (mm³) Day 27, Mean: group mean; for Tumor Volume (mm³) Day 27, Median: group median; for Tumor Volume (mm³) Day 27 / Tumor Volume (mm³) Day 30 / Tumor Volume (mm³) Day 34: individual animals; for Tumor Volume (mm³) Day 23 (individual animals) / Tumor Volume Day 23, Mean / Tumor Volume Day 23, Median / % T/C (mean) / % T/C (median): Day 23
Description: All animal studies were conducted in accordance with the guidelines approved by the Institutional Animal Care and Use Committees of AbbVie. The research protocol was approved by In Vivo Pharmacology at AbbVie prior to study initiation but was not publicly registered or disclosed. Female C.B-17 SCID-beige mice (AMO-1, OPM-2, NCI-H929, and OCI-AML2 xenografts) and female NSG mice (MV4-11-Red.Fluc systemic) were purchased from Charles River Laboratories (Wilmington, MA). Animals were housed in a light cycle-controlled room with HEPA filtration at 22 °C. Animals had nesting and climbing cage topper as the primary environmental enrichment. Animals were inoculated subcutaneously in the right flank with 5 × 10^6 (AMO-1, OPM-2, NCI-H929, and OCI-AML2) or intravenous (IV) with 5 × 10^6 (MV4-11-Red.Fluc). The inoculation volume (0.2 mL) comprised a 50:50 mixture of cells in growth media and Matrigel (BD Biosciences) for subcutaneous injections and 100% phosphate-buffered saline for IV administration. All cell lines used in this publication were authenticated using IDEXX for STR profiling as well as their IMPACT and human IMPACT panels for pathogen screening. Electronic calipers were used to measure the length and width of each tumor 2 to 3 times per week. Tumor volume was estimated by applying the following equation: volume = length × width^2/2. All groups remained blinded during measurements and dosing; only veterinary staff were aware of group identity. When tumors reached approximately 200 mm^3, mice were randomized by match and distributed into treatment and control groups. All xenograft trials were conducted using 5 to 10 mice per group, and all mice were ear tagged and monitored individually throughout the studies. Any animal with a tumor above 2000 mm^3 or 15% loss in body weight was euthanized and removed from the study. Tumor burden in the systemic MV4-11-Red.Fluc experiment was measured using an IVIS® spectrum from PerkinElmer by taking the total photon flux of the entire dorsal side of an individual mouse. Ten minutes prior to imaging, animals received intraperitoneally 0.2 mL of a 15-mg/mL solution of D-Luciferin (PerkinElmer, Catalog #122799) formulated in 100% phosphate-buffered saline. Animals were anesthetized using 3.5% isoflurane and maintained using 2%. Six days after inoculation, animals were imaged and randomized into vehicle and treatment groups at a total flux of ~1 × 10^8. A background control mouse that was tumor naive but received D-Luciferin was placed in the upper left corner of each image. The total flux from this animal was subtracted from the total flux of each animal present in the image.
For in vivo studies, maximal tumor growth inhibition (TGI) was calculated as the greatest treatment response using the following equation: Maximal TGI = (1 − mean tumor volume of the treated group/mean tumor volume of the vehicle control group) × 100. The tumor growth delay (TGD) percentage was determined as the percentage increase of the median time period for the treatment group to reach an arbitrary tumor volume of 1000 mm^3 relative to the vehicle control group. […] A power analysis was conducted using historical data to determine the number of animals required to yield significance of 0.05 at a 30% difference. There were no animals excluded. Data from experiments in vivo were analyzed using the student’s t-test for TGI values and the Mann–Whitney U test for TGD using Excel and GraphPad Prism. Fisher’s exact test was used to probe significance of differences in response frequency.

[1] = 6.25 mg/kg q7dx3 IV, mean(T)/mean(C)
[2] = 6.25 mg/kg q7dx3 IV, median(T)/median(C)
[3] = 6.25 mg/kg q7dx3 IV, SCID-beige mice
[4] = 6.25 mg/kg q7dx3 IV, OPM-2 (DSMZ) xenograft, SCID-beige mice
[5] = 25 mg/kg q7dx3 IV, mean(T)/mean(C)
[6] = 25 mg/kg q7dx3 IV, median(T)/median(C)
[7] = 25 mg/kg q7dx3 IV, SCID-beige mice
[8] = 25 mg/kg q7dx3 IV, OPM-2 (DSMZ) xenograft, SCID-beige mice
[9] = OPM-2 (DSMZ) xenograft, SCID-beige mice, 6.25 mg/kg q7dx3 IV
[10] = OPM-2 (DSMZ) xenograft, SCID-beige mice, 25 mg/kg q7dx3 IV

## Cc1c(Cl)c2c(Cl)c(C)c1-c1c(-c3ccc(F)cc3)sc3ncnc(c13)O[C@@H](C(=O)O)Cc1cc(ccc1OCc1ccnc(-c3ccc(OC[C@H]4COCCO4)cc3)n1)OC[C@@H](CN1CCN(C)CC1)O2 [Compound A-1747745]
6.25 mg/kg IV q7dx3, clinical observation, SCID-beige mice, OPM-2 (DSMZ) xenograft
  % Mortality: 100.00%
6.25 mg/kg q7dx3 IV
  Tumor Volume (mm³) Day 27, Mean: 468.28 mm³
  Tumor Volume (mm³) Day 27, Median: 424.66 mm³
  Tumor Volume (mm³) Day 27: 369 mm³ and 671 mm³ and 322 mm³ and 348 mm³ and 352 mm³ and 673 mm³ and 481 mm³ and 531 mm³
  % T/C (mean), Tumor Volume Day 30: 42.91%
  % T/C (median), Tumor Volume Day 30: 42.72%
  Tumor Volume Day 30, Mean: 634.52 mm³
  Tumor Volume Day 30, Median: 618.80 mm³
  Tumor Volume Day 34, Mean: 930.42 mm³
  Tumor Volume Day 34, Median: 940.62 mm³
[1]
  Body Weight Day 27, % T/C (mean): 97.79%
  Tumor Volume Day 27, % T/C (mean): 49.20%
[2]
  Body Weight Day 27, % T/C (median): 97.79%
  Tumor Volume Day 27, % T/C (median): 41.20%
[3]
  Tumor Volume (mm³) Day 30: 375 mm³ and 897 mm³ and 567 mm³ and 528 mm³ and 560 mm³ and 806 mm³ and 673 mm³ and 670 mm³
  Tumor Volume (mm³) Day 34: 591 mm³ and 1061 mm³ and 690 mm³ and 703 mm³ and 1071 mm³ and 821 mm³ and 1142 mm³ and 1365 mm³
[4]
  Tumor Volume (mm³) Day 23 (individual animals): 264 mm³ and 376 mm³ and 277 mm³ (2×) and 196 mm³ and 349 mm³ and 392 mm³ and 253 mm³
  Tumor Volume Day 23, Mean: 298.00 mm³
  Tumor Volume Day 23, Median: 276.63 mm³
6.25 mg/kg q7dx3 IV, OPM-2 (DSMZ) xenograft, mean(T)/mean(C)
  % T/C (mean): 68.08%
6.25 mg/kg q7dx3 IV, OPM-2 (DSMZ) xenograft, median(T)/median(C)
  % T/C (median): 67.57%
25 mg/kg IV q7dx3, clinical observation, SCID-beige mice, OPM-2 (DSMZ) xenograft
  % Mortality: 0.00%
25 mg/kg IV q7dx3, day 27, clinical observation
  % BW Loss: -2% (day 27)
25 mg/kg q7dx3 IV
  Tumor Volume (mm³) Day 27, Mean: 75.56 mm³
  Tumor Volume (mm³) Day 27, Median: 79.55 mm³
  Tumor Volume (mm³) Day 27: 109 mm³ and 83 mm³ and 115 mm³ and 60 mm³ and 69 mm³ and 4 mm³ and 77 mm³ and 88 mm³
  % T/C (mean), Tumor Volume Day 30: 2.78%
  % T/C (median), Tumor Volume Day 30: 0.28%
  Tumor Volume Day 30, Mean: 41.06 mm³
  Tumor Volume Day 30, Median: 4.00 mm³
  Tumor Volume Day 34, Mean: 4.00 mm³
  Tumor Volume Day 34, Median: 4.00 mm³
[5]
  Body Weight Day 27, % T/C (mean): 101.28%
  Tumor Volume Day 27, % T/C (mean): 7.94%
[6]
  Body Weight Day 27, % T/C (median): 101.28%
  Tumor Volume Day 27, % T/C (median): 7.72%
[7]
  Tumor Volume (mm³) Day 30: 135 mm³ and 4 mm³ (5×) and 87 mm³ (2×)
  Tumor Volume (mm³) Day 34: 4 mm³
[8]
  Tumor Volume (mm³) Day 23 (individual animals): 275 mm³ and 201 mm³ and 232 mm³ and 269 mm³ and 236 mm³ and 126 mm³ and 388 mm³ and 205 mm³
  Tumor Volume Day 23, Mean: 241.42 mm³
  Tumor Volume Day 23, Median: 233.81 mm³
25 mg/kg q7dx3 IV, OPM-2 (DSMZ) xenograft, mean(T)/mean(C)
  % T/C (mean): 55.16%
25 mg/kg q7dx3 IV, OPM-2 (DSMZ) xenograft, median(T)/median(C)
  % T/C (median): 57.11%
[9]
  Tumor Volume Day 20, Mean: 237.41 mm³
  Tumor Volume Day 20, Median: 234.06 mm³
OPM-2 (DSMZ) xenograft, SCID-beige mice, 6.25 mg/kg q7dx3 IV, 6.25 mg/kg
  Tumor Volume (mm³) Day 20, individual animals: 217 mm³ and 238 mm³ and 188 mm³ and 184 mm³ and 290 mm³ and 300 mm³ and 252 mm³ and 230 mm³
OPM-2 (DSMZ) xenograft, SCID-beige mice, 6.25 mg/kg q7dx3 IV, mean(T)/mean(C)
  Tumor Volume Day 20, % T/C (mean): 99.97%
OPM-2 (DSMZ) xenograft, SCID-beige mice, 6.25 mg/kg q7dx3 IV, median(T)/median(C)
  Tumor Volume Day 20, % T/C (median): 101.50%
OPM-2 (DSMZ) xenograft, SCID-beige mice, 6.25 mg/kg q7dx3 IV, Day 21, mean(T)/mean(C)
  Body Weight Day 21, % T/C (mean): 100.00%
OPM-2 (DSMZ) xenograft, SCID-beige mice, 6.25 mg/kg q7dx3 IV, Day 21, median(T)/median(C)
  Body Weight Day 21, % T/C (median): 100.00%
[10]
  Tumor Volume Day 20, Mean: 237.54 mm³
  Tumor Volume Day 20, Median: 238.03 mm³
OPM-2 (DSMZ) xenograft, SCID-beige mice, 25 mg/kg q7dx3 IV, 25 mg/kg
  Tumor Volume (mm³) Day 20, individual animals: 283 mm³ and 220 mm³ and 249 mm³ and 228 mm³ and 248 mm³ and 178 mm³ and 301 mm³ and 193 mm³
OPM-2 (DSMZ) xenograft, SCID-beige mice, 25 mg/kg q7dx3 IV, mean(T)/mean(C)
  Tumor Volume Day 20, % T/C (mean): 100.03%
OPM-2 (DSMZ) xenograft, SCID-beige mice, 25 mg/kg q7dx3 IV, median(T)/median(C)
  Tumor Volume Day 20, % T/C (median): 103.23%
